Reference: US20040219202A1, “Pharmaceutical composition comprising lipids comprising a polar and a nonpolar moiety” (priority 2001, published 2004)
“Also recorded” adds a separate entry of the source.

How the values were obtained:
Format in all cases: cell-based
[1] = tested on: Panc-1 and COS-7 cells; assay: In vitro transfection of LMDs, overall statements without a single cell line; details: cell line not stated or across Panc-1 and COS-7 cells
Protocol: Purity of the lipids was checked by TLC or HPLC. All lipids were stored as stock solutions in anhydrous CH2Cl2, at concentrations of either 5 mg/ml or 10 mg/ml, at −80° C., under Ar. In order to prepare cationic liposomes, lipids were added to a round-bottomed flask, via syringe, under Ar, and further freshly distilled CH2Cl2 was added, if necessary, to give a concentration of around 2.5 mg/ml. Then, 4 mM HEPES pH 7.0 (1 ml) was added, and the biphasic system was swirled to mix. A liposomal suspension was created by removing the organic solvent under reduced pressure at 25° C., followed by sonication for 2-5 min. in a water bath sonicator. Doubly-distilled water was added, if necessary, to return the total volume to 1 ml. All liposomal solutions were prepared at a final concentration of 5 mg/ml. […]
Liposomes were extruded (Extruder, Northern Upids, Inc., Vancouver, BC, Canada) by passing through two 100 nm polycarbonate filters (Isopore™ Membrane Filters, Millipore (UK) Ltd., Watford, Hertfordshire, UK) ten times. For each preparation, the size distribution of liposomes was measured by photon correlation spectroscopy (PCS) (Coulter® N4 Plus Submicron Particle Sizer, Beckman Coulter, High Wycombe, Buckinghamshire, UK). […]

[2] = tested on: COS-7 cells; assay: Transfection of COS-7 cells with LMDs (liposome:mu:DNA), β-galactosidase reporter assay; details: LMDs of pure DOTAP or DOTAP-analogue liposomes, FIG. 20
Protocol: (§1) Purity of the lipids was checked by TLC or HPLC. All lipids were stored as stock solutions in anhydrous CH2Cl2, at concentrations of either 5 mg/ml or 10 mg/ml, at −80° C., under Ar. In order to prepare cationic liposomes, lipids were added to a round-bottomed flask, via syringe, under Ar, and further freshly distilled CH2Cl2 was added, if necessary, to give a concentration of around 2.5 mg/ml. Then, 4 mM HEPES pH 7.0 (1 ml) was added, and the biphasic system was swirled to mix. A liposomal suspension was created by removing the organic solvent under reduced pressure at 25° C., followed by sonication for 2-5 min. in a water bath sonicator. Doubly-distilled water was added, if necessary, to return the total volume to 1 ml. All liposomal solutions were prepared at a final concentration of 5 mg/ml. The pH of the liposomal suspension was checked by pH Boy (Camlab Ltd., Over, Cambridgeshire, UK) and adjusted to pH 7.0±0.1 with concentrated aqueous solutions of HCl and NaOH.
(§2) Liposomes were extruded (Extruder, Northern Upids, Inc., Vancouver, BC, Canada) by passing through two 100 nm polycarbonate filters (Isopore™ Membrane Filters, Millipore (UK) Ltd., Watford, Hertfordshire, UK) ten times. For each preparation, the size distribution of liposomes was measured by photon correlation spectroscopy (PCS) (Coulter® N4 Plus Submicron Particle Sizer, Beckman Coulter, High Wycombe, Buckinghamshire, UK). For phospholipid-containing liposomes, phospholipid concentrations were checked by the Stewart assay.^23 In each case, a final lipid concentration of 4.7±0.1 mg/ml was observed. For non-phospholipid containing liposomes, lipid loss was also inevitable on extrusion. For all fast-extruding liposomal suspensions, total lipid concentration was assumed to be 4.7 mg/ml. For slower extrusions, total lipid concentrations were assumed to be 4.3 mg/ml. Very slowly extruding liposomes were extruded three times only and assumed to be 4.7 mg/ml.
(§3) Plasmid DNA containing the β-galactosidase gene (pNGVL1-nt-beta-gal; 7.53 kbp) was stored as frozen aliquots at −80° C., at a concentration of 1.2 mg/ml; μ (mu) peptide (adenoviral core peptide [H2N-Met-Arg-Arg-Ala-His-His-Arg-Arg-Arg-Arg-Ala-Ser-His-Arg-Arg-Met-Arg-Gly-Gly-CO2H]) was synthesised as described previously,^7 and maintained at 4° C. in aliquots of 1 mg/ml. Mu-DNA complexes were made by adding plasmid DNA to mu in 4 mM HEPES at a ratio of 1:0.6 (w/w) with fast vortexing. LMDs were prepared by complexing mu-DNA particles with cationic liposomes (as prepared above) in a ratio of 1:12 (w/w), such that all LMDs for all formulations were substantially cationic. For each preparation, the size distribution of LMDs was measured by PCS.
COS-7 cells were maintained in DMEM/10% FCS/1% penicillin-streptomycin (Gibco™) at 37° C./5% CO2 in a humidified atmosphere. Twenty-four hours prior to transfection, 10 000 cells per well were seeded in 48-well microtitre plates (Coming Costar) in 500 μl medium. Plasmid DNA and Transfast™ controls were prepared as above. 5 μl (0.5 μg DNA) of LMD formulation was added to each well. All experiments were performed in quadruplicate. The plate was swirled for 30 s, and incubated for 1 h at 37° C. Medium was then removed, and 500 μl of fresh medium was added. The cells were incubated at 37° C. for a further 24 h.
Medium was aspirated from the wells and the cell layer was washed with phosphate buffered saline (PBS) (Gibco™). The cells of each well were lysed in 150 μl lysis reagent (prepared according to the supplier's protocol; β-Gal Reporter Gene Assay, Roche Diagnostics GmbH, D-68305 Mannheim, Germany) at room temperature for 30 min. After lysis, […], 50 μl and 20 μl, of each cell suspension were used for the determination of β-galactosidase activity and for the determination of total cellular protein (to normalise results), respectively.
In the β-gal assay, 100 μl of the substrate reagent was added to 50 μl of the cell suspension in a white 96-well microplate (Coming Costar). […]

[3] = tested on: Panc-1 cells; assay: Transfection of Panc-1 cells with LMDs (liposome:mu:DNA), β-galactosidase reporter assay; details: LMDs composed entirely of DOTAP or DOTAP-analogue liposomes, FIG. 19
Protocol: as §1, §2, §3
Panc-1 cells were maintained in RPMI/10% FCS/1% penicillin-streptomycin (Gibco™, Invitrogen Corporation, Paisley, Scotland, UK) at 37° C./5% CO2 in a humidified atmosphere. Twenty-four hours prior to transfection, 30 000 cells per well were seeded in 48 well microtitre plates (Corning Costar, Merck Ltd., Lutterworth, Leicestershire, UK) in 500 μl medium. As a control, plasmid DNA (0.5 μg in 200 μl medium) was added to a well. As a positive control, 1.5 μl Transfast™ (Promega Corporation, Madison, Wis., USA; prepared according to the supplier's protocol) in 200 μl medium was complexed with plasmid DNA (0.5 μg) and added to a well. 5 μl (0.5 μg DNA) of LMD formulation was added to each well. All experiments were performed in quadruplicate. The plate was swirled for 30 s, and incubated for 1 h at 37° C. Medium was then removed, and 500 μl of fresh medium was added. The cells were incubated at 37° C. for a further 24 h.
Medium was aspirated from the wells and the cell layer was washed with phosphate buffered saline (PBS) (Gibco™). The cells of each well were lysed in 150 μl lysis reagent (prepared according to the supplier's protocol; β-Gal Reporter Gene Assay, Roche Diagnostics GmbH, D-68305 Mannheim, Germany) at room temperature for 30 min. […]

CCCCCCCC/C=C\CCCCCCCC(=O)OCC(C[N+](C)(C)C)OC(=O)CCCCCCC/C=C\CCCCCCCC (stereo not drawn) [DOTAP]
In vitro transfection, overall statement [1]: transfect worse than CDAN:DOPE, 1:1 liposomes; also recorded: generally poor
Transfection (β-galactosidase activity) [2]: transfect similarly
Transfection (β-galactosidase activity) [3]: transfect less well than the positive control Transfast
